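Interpolation was linear, between the two tested concentrations surrounding the appropriate level; five concentrations were tested over 48 hours in 96-well plates. GI50 marks 50% less growth.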 Calls of active or inactive are those of the source. Rule as the data show it: active = GI50 up to about 1.1 µM and inactive = higher.
Legend:
Experiment in all cases: NCI anticancer screen, dose series, 48 h
NCI-H226 = tested on: NCI-H226
ACHN = tested on: ACHN
NCI-H522 = tested on: NCI-H522
UO-31 = tested on: UO-31
OVCAR-5 = tested on: OVCAR-5
SK-MEL-5 = tested on: SK-MEL-5
HCT-116 = tested on: HCT-116
SK-MEL-28 = tested on: SK-MEL-28
HCC 2998 = tested on: HCC 2998
CAKI-1 = tested on: CAKI-1
MOLT-4 = tested on: MOLT-4
M14 = tested on: M14
HT-29 = tested on: HT-29
SF-539 = tested on: SF-539
PC-3 = tested on: PC-3
OVCAR-4 = tested on: OVCAR-4
CCRF-CEM = tested on: CCRF-CEM
LOX IMVI = tested on: LOX IMVI
MDA-MB-435 = tested on: MDA-MB-435
UACC-62 = tested on: UACC-62
HOP-92 = tested on: HOP-92
TK-10 = tested on: TK-10
DU-145 = tested on: DU-145
KM12 = tested on: KM12
MDA-N = tested on: MDA-N
U-251 = tested on: U-251
Malme-3M = tested on: Malme-3M
HOP-62 = tested on: HOP-62
OVCAR-8 = tested on: OVCAR-8
K562 = tested on: K562
SNB-75 = tested on: SNB-75
SN12C = tested on: SN12C
SF-295 = tested on: SF-295
NCI-H23 = tested on: NCI-H23
IGROV-1 = tested on: IGROV-1
HCT-15 = tested on: HCT-15
COLO 205 = tested on: COLO 205
NCI/ADR-RES = tested on: NCI/ADR-RES
786-0 = tested on: 786-0
MDA-MB-231 = tested on: MDA-MB-231
A549 = tested on: A549
MCF7 = tested on: MCF7
EKVX = tested on: EKVX
SNB-19 = tested on: SNB-19
OVCAR-3 = tested on: OVCAR-3
T47D = tested on: T47D
UACC-257 = tested on: UACC-257
SK-MEL-2 = tested on: SK-MEL-2
SK-OV-3 = tested on: SK-OV-3
HL-60 = tested on: HL-60
RPMI-8226 = tested on: RPMI-8226
NCI-H460 = tested on: NCI-H460
Hs-578T = tested on: Hs-578T
A498 = tested on: A498
SF-268 = tested on: SF-268
SW-620 = tested on: SW-620
SR = tested on: SR
RXF 393 = tested on: RXF 393

Measured: GI50

Cc1cc(NS(=O)(=O)c2ccc(/N=N/c3c(Nc4ccccc4)nn(-c4ccc(S(=O)(=O)Nc5ccncn5)cc4)c3C)cc2)no1
> 100 µM: HCT-15
inactive: NCI-H226 > 100 µM | ACHN > 100 µM | NCI-H522 > 100 µM | UO-31 > 100 µM | OVCAR-5 > 100 µM | SK-MEL-5 > 100 µM | HCT-116 > 100 µM | SK-MEL-28 > 100 µM | HCC 2998 > 100 µM | CAKI-1 > 100 µM | MOLT-4 > 100 µM | M14 > 100 µM | HT-29 > 100 µM | SF-539 > 100 µM | PC-3 > 100 µM | OVCAR-4 > 100 µM | CCRF-CEM > 100 µM | LOX IMVI > 100 µM | MDA-MB-435 > 100 µM | UACC-62 > 100 µM | HOP-92 > 100 µM | TK-10 > 100 µM | DU-145 > 100 µM | KM12 > 100 µM | MDA-N > 100 µM | U-251 > 100 µM | Malme-3M > 100 µM | HOP-62 > 100 µM | OVCAR-8 > 100 µM | K562 86.1 µM | SNB-75 > 100 µM | SN12C > 100 µM | SF-295 > 100 µM | NCI-H23 > 100 µM | IGROV-1 > 100 µM | COLO 205 > 100 µM | NCI/ADR-RES > 100 µM | 786-0 > 100 µM | MDA-MB-231 > 100 µM | A549 > 100 µM | MCF7 > 100 µM | EKVX > 100 µM | SNB-19 > 100 µM | OVCAR-3 > 100 µM | T47D > 100 µM | UACC-257 > 100 µM | SK-MEL-2 > 100 µM | SK-OV-3 > 100 µM

COC(C)(C)[C@@H](O)[C@H](O)C[C@H](C)C1=C2CC[C@@H]3[C@@]4(C)CC[C@@H](OC(C)=O)C(C)(C)[C@@H]4C[C@@H](OC4OC(COC(C)=O)C(O)C(O)C4O)[C@@]3(C)[C@]2(C)CC1 (stereo partly drawn)
inactive: U-251 10.7 µM | SNB-75 8.79 µM | SK-OV-3 15.3 µM

CCCCCN(CCCCC)CC(C)(C)C(O)c1ccc(OC)c2ccccc12 (stereo not drawn)
inactive: NCI-H226 16.9 µM | ACHN 11.7 µM | NCI-H522 6.79 µM | UO-31 2.25 µM | OVCAR-5 11.9 µM | SK-MEL-5 3.52 µM | HCT-116 12.9 µM | HL-60 3.77 µM | SK-MEL-28 10.5 µM | HCC 2998 3.52 µM | CAKI-1 11.6 µM | MOLT-4 3.25 µM | M14 1.4 µM | HT-29 2.01 µM | SF-539 3.89 µM | PC-3 10.9 µM | OVCAR-4 11.1 µM | RPMI-8226 4.15 µM | NCI-H460 3.4 µM | CCRF-CEM 27.9 µM | LOX IMVI 1.68 µM | MDA-MB-435 10.8 µM | UACC-62 12.5 µM | HOP-92 2.53 µM | Hs-578T 16.6 µM | A498 14.3 µM | SF-268 13.3 µM | TK-10 7.98 µM | DU-145 12.5 µM | KM12 8.81 µM | U-251 9.46 µM | Malme-3M 14.1 µM | HOP-62 22.9 µM | OVCAR-8 10.5 µM | K562 3.01 µM | SW-620 10 µM | SNB-75 20.5 µM | SN12C 11.5 µM | SF-295 9.77 µM | NCI-H23 11.2 µM | SR 2.07 µM | IGROV-1 2.59 µM | COLO 205 6.85 µM | NCI/ADR-RES 7.05 µM | RXF 393 7.78 µM | 786-0 12.4 µM | MDA-MB-231 13.8 µM | A549 9.2 µM | MCF7 5.13 µM | EKVX 12.1 µM | SNB-19 10.7 µM | OVCAR-3 8.34 µM | T47D 4.56 µM | UACC-257 13.1 µM | SK-MEL-2 18.2 µM
5.81 µM: HCT-15

— ChEMBL document CHEMBL1201862, “PubChem BioAssay data set” (2004)
